# According to EP1534672B1, “RETINOL DERIVATIVES, THEIR USE IN THE TREATMENT OF CANCER AND FOR POTENTIATING THE EFFICACY OF OTHER CYTOTOXIC AGENTS” (priority 2002, dated 2004):
# Test system: Human Breast Adenocarcinoma Cell Line MDA-MB-231
# Assay: Drug cytotoxicity testing (viable cell count, trypan blue exclusion, cell growth inhibition)
# Type: cell-based
# Conditions: Homo sapiens, MDA-MB-231, 48 h, compound alone, final concentration 10^-7 mol/L; working solutions in MEM with 5% FBS; two days; read-out: cell growth inhibition
# Protocol: MDA-MB-231 cells were propagated in MEM culture medium with 2 mM L-glutamine, 10% heat-inactivated fetal bovine serum (FBS) and antibiotics. DU 145 cells were cultured in MEM culture medium containing 2 mM L-glutamine, 1 mM sodium pyruvate, 10% FBS and antibiotics. SKOV-3 cells were cultured in McCoy's 5A culture medium, supplemented with 1,5 mM L-glutamine, 10% FBS and antibiotics. A549 cells were cultured in Ham's F-12 culture medium with 1 mM L-glutamine, 10% FBS and antibiotics. All media and supplements were purchased from Sigma-Aldrich (St.Louis, MO, USA). Cell propagation of all lines was carried out in Falcon™ 25 cm^2 cultivation flasks (Becton Dickinson Labware).
# Drug cytotoxicity testing was carried out with using Falcon™ 96-well cultivation plates for adherent cells (Becton Dickinson Labware). These plates were seeded by cells either at 12 × 10^3 MDA-MB-231 cells/well, or at 12 × 10^3 DU 145 cells/well, or at 14 × 10^3 SKOV-3 cells/well, or at 10 × 10^3 A549 cells/well in a volume of 200 µL/well.
# The cell cultures in cultivation plates were allowed to adhere for 24 hour of incubation. On day 1 after cell seeding, 2 µL solutions of the drugs to be tested in medium with 5% FBS was added to the cultures. In the control cultures, 2 µL of medium with 5% FBS was added as solvent control. The cells were incubated for 2 consecutive days. At the end of the incubation period adherent cells were detached by trypsinization and the number of viable cells was counted using trypan blue exclusion test and a hemocytometer. All data were derived from an average of three determinations each in six replicates. The results were expressed as mean cell number ± SE and the differences between control and test series evaluated by means of Student's t-test. The drug cytotoxicity was evaluated based on the extent of cell growth inhibition. The cell growth inhibition of the tested drugs was calculated as follows: Cell growth inhibition,% = (Control-TestSeries)/(Control) × 100 [formula]
# In the case of comparative evaluation of cytotoxicity of the inventive compounds themselves and the formulation related to consecutive dilutions of their initial solutions before adding to the cultures, 2 µL solutions of the drugs to be tested in medium with 5% FBS, in normal saline and in saline with 2,3 mM CaCl2 were added to the cultures. In control cultures, 2 µL of medium with 5% FBS, normal saline and saline with 2,3 mM CaCl2 were added as solvent controls (negative controls). […] Therefore an average of negative controls was calculated. […] Therefore an average of positive controls was calculated (for each antibiotic).
row,SMILES,inhibition at 0.1 µM
1,"CCOC(=O)[C@H](CCS(=O)(=O)O)NC(=O)\C=C(C)/C=C/C=C(C)/C=C/C1=C(C)CCCC1(C)C [compound II-3b, N-(13-cis-retinoyl)-L-homocysteic acid ethyl ester]",62.1%

# Same assay, conditions: Homo sapiens, MDA-MB-231, 48 h, compound alone, final concentration 10^-8 mol/L; working solutions in MEM with 5% FBS; two days; read-out: cell growth inhibition
row,SMILES,inhibition at 0.01 µM
1,"CCOC(=O)[C@H](CCS(=O)(=O)O)NC(=O)\C=C(C)/C=C/C=C(C)/C=C/C1=C(C)CCCC1(C)C [compound II-3b, N-(13-cis-retinoyl)-L-homocysteic acid ethyl ester]",55.4%

# Same assay, conditions: Homo sapiens, MDA-MB-231, 48 h, compound alone, final concentration 10^-9 mol/L; working solutions in MEM with 5% FBS; two days; read-out: cell growth inhibition
row,SMILES,inhibition at 0.001 µM
1,"CCOC(=O)[C@H](CCS(=O)(=O)O)NC(=O)\C=C(C)/C=C/C=C(C)/C=C/C1=C(C)CCCC1(C)C [compound II-3b, N-(13-cis-retinoyl)-L-homocysteic acid ethyl ester]",47.8%

# Same assay, conditions: Homo sapiens, MDA-MB-231, compound alone 10^-7 mol/L, in A (saline with […] CaCl2); read-out: cell growth inhibition
row,SMILES,inhibition at 0.1 µM
1,"CCOC(=O)[C@H](CCS(=O)(=O)O)NC(=O)\C=C(C)/C=C/C=C(C)/C=C/C1=C(C)CCCC1(C)C [compound II-3b, N-(13-cis-retinoyl)-L-homocysteic acid ethyl ester]",60.5%

# Same assay, conditions: Homo sapiens, MDA-MB-231, compound alone 10^-7 mol/L, in B (normal saline); read-out: cell growth inhibition
row,SMILES,inhibition at 0.1 µM
1,"CCOC(=O)[C@H](CCS(=O)(=O)O)NC(=O)\C=C(C)/C=C/C=C(C)/C=C/C1=C(C)CCCC1(C)C [compound II-3b, N-(13-cis-retinoyl)-L-homocysteic acid ethyl ester]",44.4%

# Same assay, conditions: Homo sapiens, MDA-MB-231, compound alone 10^-7 mol/L; read-out: Cell growth inhibition in A compared to that in B was increased by
row,SMILES,inhibition at 0.1 µM
1,"CCOC(=O)[C@H](CCS(=O)(=O)O)NC(=O)\C=C(C)/C=C/C=C(C)/C=C/C1=C(C)CCCC1(C)C [compound II-3b, N-(13-cis-retinoyl)-L-homocysteic acid ethyl ester]",28.9%

# Same assay, conditions: Homo sapiens, MDA-MB-231, compound alone 10^-8 mol/L, in A (saline with […] CaCl2); read-out: cell growth inhibition
row,SMILES,inhibition at 0.01 µM
1,"CCOC(=O)[C@H](CCS(=O)(=O)O)NC(=O)\C=C(C)/C=C/C=C(C)/C=C/C1=C(C)CCCC1(C)C [compound II-3b, N-(13-cis-retinoyl)-L-homocysteic acid ethyl ester]",53.6%

# Same assay, conditions: Homo sapiens, MDA-MB-231, compound alone 10^-8 mol/L, in B (normal saline); read-out: cell growth inhibition
row,SMILES,inhibition at 0.01 µM
1,"CCOC(=O)[C@H](CCS(=O)(=O)O)NC(=O)\C=C(C)/C=C/C=C(C)/C=C/C1=C(C)CCCC1(C)C [compound II-3b, N-(13-cis-retinoyl)-L-homocysteic acid ethyl ester]",35.7%

# Same assay, conditions: Homo sapiens, MDA-MB-231, compound alone 10^-8 mol/L; read-out: Cell growth inhibition in A compared to that in B was increased by
row,SMILES,inhibition at 0.01 µM
1,"CCOC(=O)[C@H](CCS(=O)(=O)O)NC(=O)\C=C(C)/C=C/C=C(C)/C=C/C1=C(C)CCCC1(C)C [compound II-3b, N-(13-cis-retinoyl)-L-homocysteic acid ethyl ester]",27.8%

# Same assay, conditions: Homo sapiens, MDA-MB-231, compound alone 10^-9 mol/L, in A (saline with […] CaCl2); read-out: cell growth inhibition
row,SMILES,inhibition at 0.001 µM
1,"CCOC(=O)[C@H](CCS(=O)(=O)O)NC(=O)\C=C(C)/C=C/C=C(C)/C=C/C1=C(C)CCCC1(C)C [compound II-3b, N-(13-cis-retinoyl)-L-homocysteic acid ethyl ester]",46%

# Same assay, conditions: Homo sapiens, MDA-MB-231, compound alone 10^-9 mol/L, in B (normal saline); read-out: cell growth inhibition
row,SMILES,inhibition at 0.001 µM
1,"CCOC(=O)[C@H](CCS(=O)(=O)O)NC(=O)\C=C(C)/C=C/C=C(C)/C=C/C1=C(C)CCCC1(C)C [compound II-3b, N-(13-cis-retinoyl)-L-homocysteic acid ethyl ester]",25.3%

# Same assay, conditions: Homo sapiens, MDA-MB-231, compound alone 10^-9 mol/L; read-out: Cell growth inhibition in A compared to that in B was increased by
row,SMILES,inhibition at 0.001 µM
1,"CCOC(=O)[C@H](CCS(=O)(=O)O)NC(=O)\C=C(C)/C=C/C=C(C)/C=C/C1=C(C)CCCC1(C)C [compound II-3b, N-(13-cis-retinoyl)-L-homocysteic acid ethyl ester]",27.8%

# Same assay, conditions: compound alone 10^-7 mol/L, in B (normal saline)
row,SMILES,number of viable cells
1,"CCOC(=O)[C@H](CCS(=O)(=O)O)NC(=O)\C=C(C)/C=C/C=C(C)/C=C/C1=C(C)CCCC1(C)C [compound II-3b, N-(13-cis-retinoyl)-L-homocysteic acid ethyl ester]",30.8 ± 1.60 × 10^3

# Same assay, conditions: compound alone 10^-8 mol/L, in B (normal saline)
row,SMILES,number of viable cells
1,"CCOC(=O)[C@H](CCS(=O)(=O)O)NC(=O)\C=C(C)/C=C/C=C(C)/C=C/C1=C(C)CCCC1(C)C [compound II-3b, N-(13-cis-retinoyl)-L-homocysteic acid ethyl ester]",35.6 ± 1.97 × 10^3

# Same assay, conditions: compound alone 10^-9 mol/L, in B (normal saline)
row,SMILES,number of viable cells
1,"CCOC(=O)[C@H](CCS(=O)(=O)O)NC(=O)\C=C(C)/C=C/C=C(C)/C=C/C1=C(C)CCCC1(C)C [compound II-3b, N-(13-cis-retinoyl)-L-homocysteic acid ethyl ester]",41.4 ± 2.15 × 10^3

# Same assay, conditions: compound alone, final concentration 10^-7 mol/L; working solutions in MEM with 5% FBS; two days
row,SMILES,number of viable cells
1,"CCOC(=O)[C@H](CCS(=O)(=O)O)NC(=O)\C=C(C)/C=C/C=C(C)/C=C/C1=C(C)CCCC1(C)C [compound II-3b, N-(13-cis-retinoyl)-L-homocysteic acid ethyl ester]",21.4 ± 0.88 × 10^3

# Same assay, conditions: compound alone, final concentration 10^-8 mol/L; working solutions in MEM with 5% FBS; two days
row,SMILES,number of viable cells
1,"CCOC(=O)[C@H](CCS(=O)(=O)O)NC(=O)\C=C(C)/C=C/C=C(C)/C=C/C1=C(C)CCCC1(C)C [compound II-3b, N-(13-cis-retinoyl)-L-homocysteic acid ethyl ester]",25.2 ± 1.27 × 10^3

# Same assay, conditions: compound alone, final concentration 10^-9 mol/L; working solutions in MEM with 5% FBS; two days
row,SMILES,number of viable cells
1,"CCOC(=O)[C@H](CCS(=O)(=O)O)NC(=O)\C=C(C)/C=C/C=C(C)/C=C/C1=C(C)CCCC1(C)C [compound II-3b, N-(13-cis-retinoyl)-L-homocysteic acid ethyl ester]",29.5 ± 1.21 × 10^3

# Same assay, conditions: sodium salt, range 10^-9 to 10^-7 M
row,SMILES,cell growth inhibition in (A) compared to compound in B
1,"CCOC(=O)[C@H](CCS(=O)(=O)O)NC(=O)\C=C(C)/C=C/C=C(C)/C=C/C1=C(C)CCCC1(C)C [compound II-3b, N-(13-cis-retinoyl)-L-homocysteic acid ethyl ester]",~29%

# Same assay, conditions: sodium salt, range 10^-9 to 10^-7 M, dilution in normal saline (B)
row,SMILES,"cell growth inhibition reached on increase of the concentration, in (B)"
1,"CCOC(=O)[C@H](CCS(=O)(=O)O)NC(=O)\C=C(C)/C=C/C=C(C)/C=C/C1=C(C)CCCC1(C)C [compound II-3b, N-(13-cis-retinoyl)-L-homocysteic acid ethyl ester]",~44%

# Test system: not given
# Assay: not given
# Conditions: rat, in vivo, ip
row,SMILES,minimal lethal dose
1,"CCOC(=O)[C@H](CCS(=O)(=O)O)NC(=O)\C=C(C)/C=C/C=C(C)/C=C/C1=C(C)CCCC1(C)C [compound II-3b, N-(13-cis-retinoyl)-L-homocysteic acid ethyl ester]",above 100 mg/kg body weight

# Same assay, conditions: rat, in vivo, ip, 100 mg/kg
row,SMILES,mortality
1,"CCOC(=O)[C@H](CCS(=O)(=O)O)NC(=O)\C=C(C)/C=C/C=C(C)/C=C/C1=C(C)CCCC1(C)C [compound II-3b, N-(13-cis-retinoyl)-L-homocysteic acid ethyl ester]",did not produce mortality
